Our source for the IC50 values is patent EP4745134A1 (Jiangsu Yahong Meditech Co., Ltd., priority 2023, dated 2025).

Each structure is given as a SMILES string.

PRMT5-MTA, sequence (O14744 whole entry): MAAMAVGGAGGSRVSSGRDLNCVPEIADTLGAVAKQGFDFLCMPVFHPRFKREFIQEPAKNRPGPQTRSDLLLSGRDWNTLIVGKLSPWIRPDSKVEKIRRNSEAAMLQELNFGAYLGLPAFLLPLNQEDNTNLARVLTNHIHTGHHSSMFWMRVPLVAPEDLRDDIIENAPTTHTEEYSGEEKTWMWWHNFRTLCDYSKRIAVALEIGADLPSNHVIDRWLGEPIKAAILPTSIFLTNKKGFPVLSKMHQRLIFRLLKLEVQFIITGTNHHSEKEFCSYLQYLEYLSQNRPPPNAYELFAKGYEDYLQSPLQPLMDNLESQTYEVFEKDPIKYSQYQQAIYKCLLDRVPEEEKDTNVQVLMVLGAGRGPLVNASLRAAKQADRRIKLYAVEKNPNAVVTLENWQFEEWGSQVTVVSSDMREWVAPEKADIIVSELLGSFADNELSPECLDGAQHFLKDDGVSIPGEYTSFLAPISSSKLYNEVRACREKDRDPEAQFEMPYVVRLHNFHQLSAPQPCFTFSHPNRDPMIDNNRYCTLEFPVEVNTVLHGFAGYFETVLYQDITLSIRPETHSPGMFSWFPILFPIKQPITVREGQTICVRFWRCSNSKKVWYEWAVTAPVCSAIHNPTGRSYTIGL
PRMT5-MTA, sequence (Q9BQA1 whole entry partner): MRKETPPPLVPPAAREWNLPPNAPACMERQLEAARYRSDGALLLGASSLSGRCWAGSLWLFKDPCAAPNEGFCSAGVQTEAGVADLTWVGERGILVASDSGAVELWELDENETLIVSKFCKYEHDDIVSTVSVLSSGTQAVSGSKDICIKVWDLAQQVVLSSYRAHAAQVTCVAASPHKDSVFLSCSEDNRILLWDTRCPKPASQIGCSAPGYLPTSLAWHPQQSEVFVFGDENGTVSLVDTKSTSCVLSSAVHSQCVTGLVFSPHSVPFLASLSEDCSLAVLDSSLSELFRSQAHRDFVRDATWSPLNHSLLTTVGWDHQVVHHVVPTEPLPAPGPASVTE

The test addresses PRMT5-MTA (Homo sapiens, UniProt O14744). Put plainly: Enzymatic inhibitory activity against PRMT5-MTA (AlphaScreen). The settings on record: read-out: IC50. The format is biochemical. How it is done: The AlphaScreen method was used to detect the enzymatic inhibitory activity of the compounds against PRMT5-MTA. 1 x Methyltransferase assay buffer IV (signalchem) was prepared as a solution for diluting each component for the enzymatic reaction. PRMT5/[…] protein of a final concentration of 1 nM, […] (sigma) of a final concentration of 1 uM and S-(5'-adenosine)-L-methionine chloride dihydrochloride (sigma) of a final concentration of 2.5 uM were mixed, then incubated for 30 minutes at room temperature, and transferred to an OptiPlate-384 well plate (PerkinElmer) at a volume of 6 uL per well, for which no PRMT5/[…] protein was added to the control wells. The test compound was 3-fold serially diluted into 10 concentrations, starting from a concentration of 1000 nM, and the series of diluted compounds were added to all wells except the control wells in the well plate using Tecan D300e. The well plate was subjected to centrifugation for 1 minute at 1000 rpm in a centrifuge, and then incubated for 15 minutes at 23°C. Histone H4 substrate of a final concentration of 5 nM was added to the well plate at 4 uL per well, centrifuged for 1 minute at 1000 rpm in a centrifuge, then placed in an incubator at 23°C and reacted for 45 minutes. Anti-histone H4 (symmetrical dimethyl R3) antibody (Abcam) was incubated with 50 ug/mL of AlphaScreen Protein A Acceptor beads (PerkinElmer) for 10 minutes at room temperature beforehand, and then added to the well plate at a volume of 10 uL per well. The mixture was reacted for 1 hour at room temperature. 50 Ug/mL of AlphaScreen Streptavidin Donor beads (PerkinElmer) was added at 10 uL per well, and reacted for 1 hour at room temperature. The signal values were detected for the well plate through the Alpha method using an Envision multifunctional microplate-reader, and the IC50 values for inhibition of the compounds on PRMT5/MET50 enzyme activity were calculated in Xlfit 5.0 software. Table 1. IC50 values for inhibition of the compounds on PRMT5+MTA enzyme activity
One may read the IC50 as the concentration that gives 50% inhibition. For the molecule `COCc1cc2cc(C(=O)N(Cc3ccc(C(F)(F)F)cn3)N(C)c3ncccn3)ccc2nc1N` [Example 326, 2-amino-3-(methoxymethyl)-N'-methyl-N'-(pyrimidin-2-yl)-N-((5-(trifluoromethyl)pyridin-2-yl)methyl)quinoline-6-carbohydrazide], the IC50 was 2 nM. Under `Cc1cc2cc(C(=O)N(Cc3ccc(F)cn3)N(C)c3ncccn3)ccc2nc1N` [Example 71, 2-amino-N-((5-fluoropyridin-2-yl)methyl)-N',3-dimethyl-N'-(pyrimidin-2-yl)quin oline-6-carbohydrazide] stands 3.3 nM.

As for `Cc1cc2cc(C(=O)N(Cc3ccc(C(F)(F)F)cn3)N(C)c3ncccc3Br)ccc2nc1N` [Example 106, 2-amino-N'-(3-bromopyridin-2-yl)-N',3-d imethyl-N-((5-(trifluoromethyl)pyridin-2-yl)methyl)quinoline-6-carbohydrazide], the IC50 is 1.9 nM. Next, `Cc1cc2cc(C(=O)N(Cc3ncccc3C(F)(F)F)N(C)c3ncccn3)ccc2nc1N` [Example 41, 2-amino-N',3-dimethyl-N'-(pyrimidin-2-yl)-N-((3-(trifluoromethyl)pyridin-2-yl)methyl)quinoline-6-carbohydrazide]: 3.9 nM; `CN(c1ncccn1)N(Cc1ccc(C(F)(F)F)cn1)C(=O)c1ccc2nc(N)c(C(F)(F)F)cc2c1` [Example 327, 2-amino-N'-methyl-N'-(pyrimidin-2-yl)-3-(trifluoromethyl)-N-((5-(trifluoromethyl)pyridin-2-yl)methyl)quinoline-6-carbohydrazide]: 8.4 nM. Under `Cn1ncc2c(N)nc3cc(C4CC4)c(C(=O)N4CCCN4c4ccc(C(F)(F)F)cn4)cc3c21` [Example 497, (4-amino-7-cyclopropyl-1-methyl-1H-pyr azolo[4,3-c]quinolin-8-yl)(2-(5-(trifluoromethyl)pyridin-2-yl)pyrazolidin-1-yl)met hanone] stands 5.1 nM; under `Cc1cc2cc(C(=O)N(Cc3ccc(C(F)(F)F)cn3)N(C)c3ncc(I)cn3)ccc2nc1N` [Example 267, 2-amino-N'-(5-iodopyrimidin-2-yl)-N',3-dimethyl-N-((5-(trifluoromethyl)pyridin-2-yl)methyl)quinoline-6-carbohydrazide], 1.8 nM; under `CN(C(=O)c1cc2c(cc1F)nc(N)c1cnn(C)c12)N1CCc2cc(C(F)(F)F)cnc21` [Example 31, 4-amino-7-fluoro-N,1-dimethyl-N-(5-(trifluoromethyl)-2,3-dihydro-1H-pyrrolo[2,3-b]pyridin-1-yl)-1H-pyrazolo[4,3-c]quinoline-8-carboxamide], 3.5 nM.

Consider `Cc1cc2cc(C(=O)N(Cc3ccc(C(F)(F)F)cn3)N(C)c3nccc4cnn(C)c34)ccc2nc1N` [Example 275, 2-amino-N',3-dimethyl-N'-(1-methyl-1H-pyrazolo[3,4-c]pyridin-7-yl)-N-((5-(trifluoromethyl)pyridin-2-yl)methyl)quinoline-6-carbohydrazide], for which the IC50 is 2.9 nM. Next, `CN(c1ncccn1)N(Cc1ccc(C(F)(F)F)cn1)C(=O)c1cc2c(cc1F)nc(N)c1cnn(C)c12` [Example 14, 4-amino-7-fluoro-N',1-dimethyl-N'-(pyrimidin-2-yl)-N-((5-(trifluoromethyl)pyridin-2-yl)methyl)-1H-pyrazolo[4,3-c]quinoline-8-carbohydrazide]: 2 nM; `Cc1cc2nc(N)c3cnn(C)c3c2cc1C(=O)N(C)N1CCCc2cccnc21` [Example 268, 4-amino-N-(3,4-dihydro-1,8-naphthyridin-1(2H)-yl)-N,1,7-trimethyl-1H-pyrazolo[4,3-c]quinoline-8-carboxamide]: 3.5 nM; `COC1CN(C(=O)c2cc3c(cc2Cl)nc(N)c2cnn(C)c23)N(c2cc(F)ccc2F)C1` (stereo not drawn) [Example 440, (4-amino-7-chloro-1-methyl-1H-pyrazolo [4,3-c]quinolin-8-yl)(2-(2,5-difluorophenyl)-4-methoxypyrazolidin-1-yl)methanone]: 3.7 nM. Turning to `Cc1cc2cc(C(=O)N(Cc3ccc(C(F)(F)F)cn3)n3cnc4cccnc43)ccc2nc1N` [Example 27, 2-amino-N-(3H-imidazo[4,5-b]pyridin-3-yl)-3-methyl-N-((5-(trifluoromethyl)pyridin-2-yl)methyl)quinoline-6-carboxamide], the IC50 amounted to 4 nM. In the case of `Cc1cc2cc(C(=O)N(Cc3ncc(Br)cn3)N(C)c3ncccc3F)ccc2nc1N` [Example 89, 2-amino-N-((5-bromopyrimidin-2-yl)methyl)-N'-(3-fluoropyridin-2-yl)-N',3-dimet hylquinoline-6-carbohydrazide], the IC50 was 2 nM. Under `Cc1cc2cc(C(=O)N(Cc3ccc(-c4nn[nH]n4)cn3)N(C)c3ncccn3)ccc2nc1N` [Example 245, N-((5-(2H-tetrazol-5-yl)pyridin-2-yl)methyl)-2-amino-N',3-dimethyl-N'-(pyrimidin-2-y 1)quinoline-6-carbohydrazide] stands 9.5 nM. For the molecule `COc1cc2nc(N)c3cnn(C)c3c2cc1C(=O)N1CCCN1c1ncccc1F` [Example 498, (4-amino-7-methoxy-1-methyl-1H-pyraz olo[4,3-c]quinolin-8-yl)(2-(3-fluoropyridin-2-yl)pyrazolidin-1-yl)methanone], the IC50 came out at 5 nM. Next, `CN(c1ncccn1)N(Cc1ccc(C(F)(F)F)cn1)C(=O)c1ccc2nc(N)c3cnn(C)c3c2c1` [Example 11, 4-amino-N',1-dimethyl-N'-(pyrimidin-2-y 1)-N-((5-(trifluoromethyl)pyridin-2-yl)methyl)-1H-pyrazolo[4,3-c]quinoline-8-carb ohydrazide]: 1 nM; `Cc1cc2cc(C(=O)N(Cc3ccc(-c4ccc(N(C)C5CC5)nc4)cn3)N(C)c3ncccn3)ccc2nc1N` [Compound 247, 2-amino-N-((6'-(cyclopropyl(methyl)amino)-[3,3'-bipyridine]-6-yl)methyl)-N',3-di methyl-N'-(pyrimidin-2-yl)quinoline-6-carbohydrazide]: 7.7 nM; `CCc1cccnc1N(C)N(Cc1ccc(C(F)(F)F)cn1)C(=O)c1ccc2nc(N)c(C)cc2c1` [Example 134, 2-amino-N'-(3-ethylpyridin-2-yl)-N',3-dimethyl-N-((5-(trifluoromethyl)pyridin-2-yl)methyl)quinoline-6-carbohydrazide]: 2.3 nM. Consider `Cc1cc2nc(N)c3cnn(C)c3c2cc1C(=O)N1CC(O)CN1c1ncccc1F` (stereo not drawn) [Example 356, (4-amino-1,7-dimethyl-1H-pyrazolo[4,3-c]quinolin-8-yl)(2-(3-fluoropyridin-2-yl)-4-hydroxypyrazolidin-1-yl)methanone], for which the IC50 worked out at 3.7 nM. `Cc1cc2nc(N)c3c(cnn3C)c2cc1C(=O)N1CCCN1c1ncccc1F` [Example 501, (4-amino-3,7-dimethyl-3H-pyrazolo[3,4-c]quinolin-8-yl)(2-(3-fluoropyridin-2-yl)pyrazolidin-1-yl)methanone]: the IC50 stood at 4.4 nM.

For the molecule `Cc1cc2cc(C(=O)N(Cc3ccc(C(F)(F)F)cn3)N(C)c3cccnn3)ccc2nc1N` [Example 79, 2-amino-N',3-dimethyl-N'-(pyridazin-3-yl)-N-((5-(trifluoromethyl)pyridin-2-yl)methyl)quinoline-6-carbohydrazide], the IC50 came out at 9.7 nM. Next, `COCCN(c1ncccn1)N(Cc1ccc(C(F)(F)F)cn1)C(=O)c1ccc2nc(N)c(C)cc2c1` [Example 4, 2-amino-N'-(2-methoxyethyl)-3-methyl-N'-(pyrimidin-2-yl)-N-((5-(trifluoromethyl)pyridin-2-yl)methyl)quinoline-6-carbohydrazide]: 2 nM; `Cc1cc2cc(C(=O)N3CCCN3c3ccc(C(F)(F)F)cn3)ccc2nc1N` [Example 337, (2-amino-3-methylquinolin-6-yl)(2-(5-(trifluoromethyl)pyridin-2-yl)pyrazolidin-1-yl)methanone]: 59 nM; `Cc1cc2nc(N)c3cnn(C)c3c2cc1C(=O)N1CC(C)CN1c1cccc(F)c1F` (stereo not drawn) [Example 363, (4-amino-1,7-dimethyl-1H-pyrazolo[4,3-c]quinolin-8-yl)(2-(2,3-difluorophenyl)-4-methylpyrazolidin-1-yl)methanone]: 3.1 nM. Next, `Cc1cc2cc(C(=O)N(Cc3ccc(C(F)(F)F)cn3)n3c(=O)n(C)c4cccnc43)ccc2nc1N` [Example 118, 2-amino-3-methyl-N-(1-methyl-2-oxo-1,2-dihydro-3H-imidazo[4,5-b]pyridin-3-yl)-N-((5-(trifluoromethyl)pyridin-2-yl)methyl)quinoline-6-carboxamide]: 2.3 nM; `Cc1cc2cc(C(=O)N(Cc3ccc(C(F)(F)F)cn3)N(CC(F)(F)F)c3ncccn3)ccc2nc1N` [Example 98, 2-amino-3-methyl-N'-(pyrimidin-2-yl)-N' -(2,2,2-trifluoroethyl)-N-((5-(trifluoromethyl)pyridin-2-yl)methyl)quinoline-6-carbohydrazide]: 17.2 nM.
